Measured values reported in patent US6642355B2, “Endothelin-antagonizing peptide” (priority 1991, dated 2003).
pIC50: −log10 of the molar value. Where two headings read alike, the source gives them in different places. Bridge positions count the residues as written; N and C are the ends. Peptide text beside a SMILES is read from it.

Molecular target: T1, endothelin receptor (Bos taurus, UniProt P28088)
T1 construct: from tissue; host or cells: bovine cerebellar membrane fraction
T1 sequence (P28088 27-441): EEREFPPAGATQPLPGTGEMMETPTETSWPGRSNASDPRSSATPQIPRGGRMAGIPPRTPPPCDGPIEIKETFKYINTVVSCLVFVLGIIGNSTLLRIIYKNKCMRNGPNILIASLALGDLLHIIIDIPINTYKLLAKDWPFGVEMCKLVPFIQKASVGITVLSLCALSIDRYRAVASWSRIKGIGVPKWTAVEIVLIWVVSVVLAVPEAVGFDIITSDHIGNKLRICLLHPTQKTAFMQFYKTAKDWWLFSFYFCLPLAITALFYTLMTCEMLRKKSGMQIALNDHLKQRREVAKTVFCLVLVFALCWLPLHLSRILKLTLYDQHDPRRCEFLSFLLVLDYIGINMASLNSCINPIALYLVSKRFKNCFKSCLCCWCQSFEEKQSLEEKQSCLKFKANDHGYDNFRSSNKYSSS
Test: Endothelin receptor-antagonizing effect: 125I-endothelin-1 binding to bovine cerebellar tissue membrane fraction

[1] = bovine cerebellar tissue membrane fraction

Molecule `C[C@@H]1NC(=O)[C@H]([C@@H](C)O)NC(=O)CNC(=O)[C@H](Cc2c[nH]cn2)NC(=O)[C@H](Cc2c[nH]c3ccccc23)NC(=O)[C@H](CC(N)=O)NC(=O)CNC(=O)C[C@@H](C(=O)N[C@@H](Cc2c[nH]c3ccccc23)C(=O)N[C@@H](CC(N)=O)C(=O)N[C@@H](Cc2ccc(O)cc2)C(=O)N[C@@H](Cc2ccc(O)cc2)C(=O)N[C@@H](Cc2c[nH]c3ccccc23)C(=O)O)NC(=O)[C@@H]2CCCN2C1=O` [Compound I-32] (GNWHGTAPDWNYYW-OH; lactam N-9) has a pIC50 of under 6.24.
Work on `C[C@@H]1NC(=O)[C@H]([C@@H](C)O)NC(=O)CNC(=O)[C@H](Cc2c[nH]cn2)NC(=O)[C@H](Cc2c[nH]c3ccccc23)NC(=O)[C@H](CC(N)=O)NC(=O)CNC(=O)C[C@@H](C(=O)O)NC(=O)[C@@H]2CCCN2C1=O` [Compound I-14] (GNWHGTAPD-OH; lactam N-9) yielded a pIC50 of under 6.00.
`CC[C@H](C)[C@H](NC(=O)[C@H](CC(=O)O)NC(=O)[C@H](CC(C)C)NC(=O)[C@H](Cc1c[nH]cn1)NC(=O)[C@H](C)NC(=O)[C@H](Cc1ccc(O)cc1)NC(=O)[C@H](Cc1ccc(O)cc1)NC(=O)[C@H](CC(N)=O)NC(=O)[C@H](Cc1ccccc1)NC(=O)[C@H](Cc1ccccc1)NC(=O)[C@H](Cc1c[nH]c2ccccc12)NC(=O)[C@@H]1CC(=O)NCC(=O)N[C@@H](CC(N)=O)C(=O)N[C@@H](Cc2c[nH]c3ccccc23)C(=O)N[C@@H](Cc2c[nH]cn2)C(=O)NCC(=O)N[C@@H]([C@@H](C)O)C(=O)N[C@@H](C)C(=O)N2CCC[C@H]2C(=O)N1)C(=O)N[C@H](C(=O)N[C@@H](Cc1c[nH]c2ccccc12)C(=O)O)[C@@H](C)CC` [Compound I-40] (GNWHGTAPDWFFNYYAHLDIIW-OH; lactam N-9 (inferred); C-terminus assumed) showed a pIC50 [1] of under 7.35.
With `C[C@@H]1NC(=O)[C@H]([C@@H](C)O)NC(=O)CNC(=O)[C@H](Cc2c[nH]cn2)NC(=O)[C@H](Cc2c[nH]c3ccccc23)NC(=O)[C@H](CC(N)=O)NC(=O)CNC(=O)C[C@@H](C(=O)N[C@@H](Cc2c[nH]c3ccccc23)C(=O)N[C@@H](Cc2ccccc2)C(=O)N[C@@H](Cc2ccccc2)C(=O)N[C@@H](CC(N)=O)C(=O)N[C@@H](Cc2ccc(O)cc2)C(=O)N[C@@H](Cc2ccc(O)cc2)C(=O)N[C@@H](Cc2ccc3ccccc3c2)C(=O)O)NC(=O)[C@@H]2CCCN2C1=O` [Compound I-49] the pIC50 was 8.20.
`CC[C@H](C)[C@H](NC(=O)[C@H](CC(=O)O)NC(=O)[C@H](CC(C)C)NC(=O)[C@H](Cc1c[nH]cn1)NC(=O)[C@H](C)NC(=O)[C@H](Cc1ccccc1)NC(=O)[C@H](Cc1ccc(O)cc1)NC(=O)[C@@H](NC(=O)[C@H](Cc1c[nH]c2ccccc12)NC(=O)[C@H](CC(=O)O)NC(=O)[C@@H]1CCCN1C(=O)[C@H](C)NC(=O)[C@@H](NC(=O)CNC(=O)[C@H](Cc1c[nH]cn1)NC(=O)[C@H](Cc1c[nH]c2ccccc12)NC(=O)[C@H](CC(=O)O)NC(=O)CN)[C@@H](C)O)C(C)C)C(=O)N[C@H](C(=O)N[C@@H](Cc1c[nH]c2ccccc12)C(=O)O)[C@@H](C)CC` [Compound I-43] gave a pIC50 of 9.20.
In the case of `C[C@@H]1NC(=O)[C@H](C)NC(=O)[C@H]([C@@H](C)O)NC(=O)CNC(=O)[C@H](Cc2c[nH]cn2)NC(=O)[C@H](Cc2c[nH]c3ccccc23)NC(=O)[C@H](CC(N)=O)NC(=O)CNC(=O)C[C@@H](C(=O)N[C@@H](Cc2c[nH]c3ccccc23)C(=O)N[C@@H](Cc2ccccc2)C(=O)N[C@@H](Cc2ccccc2)C(=O)N[C@@H](CC(N)=O)C(=O)N[C@@H](Cc2ccc(O)cc2)C(=O)N[C@@H](Cc2ccc(O)cc2)C(=O)N[C@@H](Cc2c[nH]c3ccccc23)C(=O)O)NC1=O` [Compound I-36] (GNWHGTAADWFFNYYW-OH; lactam N-9), the pIC50 was under 6.24.
Work on `CC[C@H](C)[C@H](NC(=O)[C@H](CC(=O)O)NC(=O)[C@H](CC(C)C)NC(=O)[C@H](Cc1c[nH]cn1)NC(=O)[C@H](C)NC(=O)[C@H](Cc1c[nH]c2ccccc12)NC(=O)[C@@H]1CC(=O)NCC(=O)N[C@@H](CC(N)=O)C(=O)N[C@@H](Cc2c[nH]c3ccccc23)C(=O)N[C@@H](Cc2c[nH]cn2)C(=O)NCC(=O)N[C@@H]([C@@H](C)O)C(=O)N[C@@H](C)C(=O)N2CCC[C@H]2C(=O)N1)C(=O)N[C@H](C(=O)N[C@@H](Cc1c[nH]c2ccccc12)C(=O)O)[C@@H](C)CC` [Compound I-35] (GNWHGTAPDWAHLDIIW-OH; lactam N-9 (inferred); C-terminus assumed) yielded a pIC50 [1] of under 7.29.
`CC(C)[C@H](NC(=O)[C@H](Cc1c[nH]c2ccccc12)NC(=O)[C@@H]1CC(=O)NCC(=O)N[C@@H](CC(N)=O)C(=O)N[C@@H](Cc2c[nH]c3ccccc23)C(=O)N[C@@H](Cc2c[nH]cn2)C(=O)NCC(=O)N[C@@H]([C@@H](C)O)C(=O)N[C@@H](C)C(=O)N2CCC[C@H]2C(=O)N1)C(=O)N[C@@H](Cc1ccc(O)cc1)C(=O)N[C@@H](Cc1ccccc1)C(=O)N[C@@H](C)C(=O)N[C@@H](Cc1ccccc1)C(=O)N[C@@H](Cc1ccccc1)C(=O)N[C@@H](CC(N)=O)C(=O)N[C@@H](Cc1ccc(O)cc1)C(=O)N[C@@H](Cc1ccc(O)cc1)C(=O)N[C@@H](Cc1c[nH]c2ccccc12)C(=O)O` [Compound I-33] (GNWHGTAPDWVYFAFFNYYW-OH; lactam N-9) showed a pIC50 [1] of under 7.40.
`CC[C@H](C)[C@H](NC(=O)[C@H](CC(N)=O)NC(=O)[C@H](Cc1ccc(O)cc1)NC(=O)[C@H](Cc1ccc(O)cc1)NC(=O)[C@H](CC(N)=O)NC(=O)[C@H](Cc1ccccc1)NC(=O)[C@H](Cc1ccccc1)NC(=O)[C@H](Cc1c[nH]c2ccccc12)NC(=O)[C@@H]1CC(=O)NCC(=O)N[C@@H](CC(N)=O)C(=O)N[C@@H](Cc2c[nH]c3ccccc23)C(=O)N[C@@H](Cc2c[nH]cn2)C(=O)NCC(=O)N[C@@H]([C@@H](C)O)C(=O)N[C@@H](C)C(=O)N2CCC[C@H]2C(=O)N1)C(=O)N[C@H](C(=O)N[C@@H](Cc1c[nH]c2ccccc12)C(=O)O)[C@@H](C)CC` [Compound I-39] (GNWHGTAPDWFFNYYNIIW-OH; lactam N-9) was tested, and the pIC50 [1] was under 7.14.
In the case of `CC[C@H](C)[C@H](NC(=O)[C@H](Cc1c[nH]c2ccccc12)NC(=O)[C@@H]1CC(=O)NCC(=O)N[C@@H](CC(N)=O)C(=O)N[C@@H](Cc2c[nH]c3ccccc23)C(=O)N[C@@H](Cc2c[nH]cn2)C(=O)NCC(=O)N[C@@H]([C@@H](C)O)C(=O)N[C@@H](C)C(=O)N2CCC[C@H]2C(=O)N1)C(=O)N[C@H](C(=O)N[C@@H](Cc1c[nH]c2ccccc12)C(=O)O)[C@@H](C)CC` [Compound I-27] (GNWHGTAPDWIIW-OH; lactam N-9), the pIC50 was under 5.22.
`CC[C@H](C)[C@H](NC(=O)[C@H](CC(=O)O)NC(=O)[C@H](CC(C)C)NC(=O)[C@H](Cc1c[nH]cn1)NC(=O)[C@H](C)NC(=O)[C@H](Cc1ccccc1)NC(=O)[C@H](Cc1ccc(O)cc1)NC(=O)[C@@H](NC(=O)[C@H](Cc1c[nH]c2ccccc12)NC(=O)[C@H](CC(=O)O)NC(=O)[C@@H]1CCCN1C(=O)[C@H](C)NC(=O)[C@@H](NC(=O)CNC(=O)[C@H](Cc1c[nH]cn1)NC(=O)[C@H](Cc1c[nH]c2ccccc12)NC(=O)[C@H](CC(N)=O)NC(=O)CN)[C@@H](C)O)C(C)C)C(=O)N[C@H](C(=O)N[C@@H](Cc1c[nH]c2ccccc12)C(=O)O)[C@@H](C)CC` [Compound I-26] gave a pIC50 [1] of over 9.89.
Molecule `C[C@@H]1NC(=O)[C@H]([C@@H](C)O)NC(=O)CNC(=O)[C@H](Cc2c[nH]cn2)NC(=O)[C@H](Cc2c[nH]c3ccccc23)NC(=O)[C@H](CC(N)=O)NC(=O)CNC(=O)C[C@@H](C(=O)N[C@@H](Cc2c[nH]c3ccccc23)C(=O)N[C@@H](Cc2ccccc2)C(=O)N[C@@H](Cc2ccccc2)C(=O)N[C@@H](CC(N)=O)C(=O)N[C@@H](Cc2ccc(O)cc2)C(=O)N[C@@H](Cc2ccc(O)cc2)C(=O)N[C@@H](Cc2c[nH]c3ccccc23)C(=O)N[C@@H](CC(N)=O)C(=O)N[C@@H](Cc2ccc(O)cc2)C(=O)N[C@@H](Cc2ccc(O)cc2)C(=O)N[C@@H](Cc2c[nH]c3ccccc23)C(=O)O)NC(=O)[C@@H]2CCCN2C1=O` [Compound I-19] (GNWHGTAPDWFFNYYWNYYW-OH; lactam N-9) has a pIC50 of 6.43.
Work on `C[C@@H]1NC(=O)[C@H]([C@@H](C)O)NC(=O)CNC(=O)[C@H](Cc2c[nH]cn2)NC(=O)[C@H](Cc2c[nH]c3ccccc23)NC(=O)[C@H](CC(N)=O)NC(=O)CNC(=O)C[C@@H](C(=O)N[C@@H](Cc2c[nH]c3ccccc23)C(=O)O)NC(=O)[C@@H]2CCCN2C1=O` [Compound I-15] (GNWHGTAPDW-OH; lactam N-9) yielded a pIC50 of under 6.05.
In the case of `CC[C@H](C)[C@H](NC(=O)[C@H](CC(=O)O)NC(=O)[C@H](CC(C)C)NC(=O)[C@H](Cc1c[nH]cn1)NC(=O)[C@H](C)NC(=O)[C@H](Cc1ccccc1)NC(=O)[C@H](Cc1ccc(O)cc1)NC(=O)[C@@H](NC(=O)[C@H](Cc1c[nH]c2ccccc12)NC(=O)[C@H](CC(=O)O)NC(=O)[C@@H]1CCCN1C(=O)[C@H](C)NC(=O)[C@@H](NC(=O)CNC(=O)[C@H](CCCCN)NC(=O)[C@H](Cc1c[nH]c2ccccc12)NC(=O)[C@H](CC(N)=O)NC(=O)CN)[C@@H](C)O)C(C)C)C(=O)N[C@H](C(=O)N[C@@H](Cc1c[nH]c2ccccc12)C(=O)O)[C@@H](C)CC` [Compound I-44], the pIC50 was 9.54.
With `CC(=O)N[C@H]1CSSC[C@@H](C(=O)N[C@@H](Cc2c[nH]c3ccccc23)C(=O)N[C@@H](Cc2ccccc2)C(=O)N[C@@H](Cc2ccccc2)C(=O)N[C@@H](CC(N)=O)C(=O)N[C@@H](Cc2ccc(O)cc2)C(=O)N[C@@H](Cc2ccc(O)cc2)C(=O)N[C@@H](Cc2c[nH]c3ccccc23)C(=O)O)NC(=O)[C@@H]2CCCN2C(=O)[C@H](C)NC(=O)[C@H]([C@@H](C)O)NC(=O)CNC(=O)[C@H](Cc2c[nH]cn2)NC(=O)[C@H](Cc2c[nH]c3ccccc23)NC(=O)[C@H](CC(N)=O)NC1=O` [Compound I-8] (Ac-CNWHGTAPCWFFNYYW-OH; disulfide 1-9) the pIC50 was under 5.30.
